# Test results reported in patent US20260365682A1, “MODULATORS OF TNF-ALPHA ACTIVITY” (Forward Therapeutics, Inc., priority 2022, published 2026).
# Target: T1, TNF-α (Homo sapiens, UniProt P01375)
# T1 construct: purchased R&D 210-TA-020/CF
# Assay: TNF-α Induced HEK Blue Cellular Assay (secreted alkaline phosphatase expression, QUANTI-Blue)
# Assay type: cell-based
# Conditions: HEK Blue TNFα reporter cells; TNF-α 100 μg/ml; 24 hrs at 37° C.; inhibition of secreted alkaline phosphatase; read-out: IC50 value
# Protocol: TNF-α Induced HEK Blue Cellular Assay
# Test articles were diluted in DMSO and serially diluted into 384 well assay plate (Corning 3765), at final concentrations ranging from […] to 0.5 nM. HEK Blue™ TNFα reporter cells were added at a final density of 10,000 cell per well in assay media [DMEM (Gibco, cat #21063-029), 10% fetal bovine serum (ExcelBio, cat #FND500), 1% Penicillin-Streptomycin (Solarbio, cat #P1400-100]. TNF-α (R&D 210-TA-020/CF) was then added to the assay plate at a final concentration of […]. This plate was then incubated for 24 hrs at 37° C. and 5% CO2. Secreted alkaline phosphatase expression was then measured using QUANTI-Blue™ (Invivogen), according to manufacturer instructions and read on an Envision microplate reader at 620 nm.
# Inhibition data for test compound over a range of concentration was plotted as percentage inhibition of the test compound (100%=maximum inhibition). IC50 values were determined after correcting for background [(sample read-mean of low control)/(mean of high control-mean of low control)] whereby the low control is DMSO without stimulation and high control is DMSO with stimulation. The IC50 is defined as the concentration of test compound which produces 50% inhibition and was quantified using the 4 parameter logistic equation to fit the data.
# T1 sequence (P01375 77-233 limits assumed): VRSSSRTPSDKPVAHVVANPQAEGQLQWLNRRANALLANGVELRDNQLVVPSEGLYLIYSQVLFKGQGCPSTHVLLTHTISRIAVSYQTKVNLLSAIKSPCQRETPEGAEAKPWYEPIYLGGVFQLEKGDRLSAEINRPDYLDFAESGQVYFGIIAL
row,IC50 [nM],SMILES
1,< 100,"[2H]C([2H])([2H])N1C(=O)c2cccc(OC(F)F)c2[C@H]2C[C@@H]1c1nc3ccc(C#Cc4cncn4C)cc3n12 [Example 17, (7R,14R)-1-(difluoromethoxy)-6-(methyl-d3)-11-((1-methyl-1H-imidazol-5-yl)ethynyl)-6,7-dihydro-7,14-methanobenzo[f]benzo[4,5]imidazo[1,2-a][1,4]diazocin-5(14H)-one]"
2,< 100,"[2H]C([2H])([2H])N1C(=O)c2cccc(OC(F)F)c2[C@H]2C[C@@H]1c1nc3ccc(C#Cc4cn(C)nn4)cc3n12 [Example 18, (7R,14R)-1-(difluoromethoxy)-6-(methyl-d3)-11-((1-methyl-1H-1,2,3-triazol-4-yl)ethynyl)-6,7-dihydro-7,14-methanobenzo[f]benzo[4,5]imidazo[1,2-a][1,4]diazocin-5(14H)-one]"
3,< 100,"Cn1nncc1C#Cc1ccc2nc3n(c2c1)[C@@H]1C[C@H]3NC(=O)c2cccc(OC(F)F)c21 [Example 19, (7R,14R)-1-(difluoromethoxy)-11-((1-methyl-1H-1,2,3-triazol-5-yl)ethynyl)-6,7-dihydro-7,14-methanobenzo[f]benzo[4,5]imidazo[1,2-a][1,4]diazocin-5(14H)-one]"
4,< 100,"[2H]C([2H])([2H])N1C(=O)c2cccc(OC(F)F)c2[C@H]2C[C@@H]1c1nc3ccc(C#Cc4cn(C)nc4C#N)cc3n12 [Example 20, 4-(((7R,14R)-1-(difluoromethoxy)-6-(methyl-d3)-5-oxo-5,6,7,14-tetrahydro-7,14-methanobenzo[f]benzo[4,5]imidazo[1,2-a][1,4]diazocin-11-yl)ethynyl)-1-methyl-1H-pyrazole-3-carbonitrile]"
5,< 100,"[2H]C([2H])([2H])N1C(=O)c2cccc(OC(F)F)c2[C@H]2C[C@@H]1c1nc3ccc(C#Cc4cnc(C)nc4)cc3n12 [Example 21, (7R,14R)-1-(difluoromethoxy)-6-(methyl-d3)-11-((2-methylpyrimidin-5-yl)ethynyl)-6,7-dihydro-7,14-methanobenzo[f]benzo[4,5]imidazo[1,2-a][1,4]diazocin-5(14H)-one]"
6,< 100,"[2H]C([2H])([2H])N1C(=O)c2cccc(OC(F)F)c2[C@H]2C[C@@H]1c1nc3ccc(C#Cc4cnccn4)cc3n12 [Example 22, (7R,14R)-1-(difluoromethoxy)-6-(methyl-d3)-11-(pyrazin-2-ylethynyl)-6,7-dihydro-7,14-methanobenzo[f]benzo[4,5]imidazo[1,2-a][1,4]diazocin-5(14H)-one]"
7,100 to 1000,"[2H]C([2H])([2H])N1C(=O)c2cccc(OC(F)F)c2[C@H]2C[C@@H]1c1nc3ccc(C#Cc4cnc(C(F)(F)F)nc4)cc3n12 [Example 23, (7R,14R)-1-(difluoromethoxy)-6-(methyl-d3)-11-((2-(trifluoromethyl)pyrimidin-5-yl)ethynyl)-6,7-dihydro-7,14-methanobenzo[f]benzo[4,5]imidazo[1,2-a][1,4]diazocin-5(14H)-one]"
8,< 100,"[2H]C([2H])([2H])N1C(=O)c2cccc(OC(F)F)c2[C@H]2C[C@@H]1c1nc3ccc(C#Cc4cnn(C)c4C#N)cc3n12 [Example 24, 4-(((7R,14R)-1-(difluoromethoxy)-6-(methyl-d3)-5-oxo-5,6,7,14-tetrahydro-7,14-methanobenzo[f]benzo[4,5]imidazo[1,2-a][1,4]diazocin-11-yl)ethynyl)-1-methyl-1H-pyrazole-5-carbonitrile]"
9,1000 to 10000,"[2H]C([2H])([2H])N1C(=O)c2cccc(OC(F)F)c2[C@H]2C[C@@H]1c1nc3ccc(C#Cc4nncn4C)cc3n12 [Example 25, (7R,14R)-1-(difluoromethoxy)-6-(methyl-d3)-11-((4-methyl-4H-1,2,4-triazol-3-yl)ethynyl)-6,7-dihydro-7,14-methanobenzo[f]benzo[4,5]imidazo[1,2-a][1,4]diazocin-5(14H)-one]"
10,100 to 1000,"[2H]C([2H])([2H])N1C(=O)c2cccc(OC(F)F)c2[C@H]2C[C@@H]1c1nc3ccc(C#Cc4ccc(C)nn4)cc3n12 [Example 26, (7R,14R)-1-(difluoromethoxy)-6-(methyl-d3)-11-((6-methylpyridazin-3-yl)ethynyl)-6,7-dihydro-7,14-methanobenzo[f]benzo[4,5]imidazo[1,2-a][1,4]diazocin-5(14H)-one]"
11,< 100,"[2H]C([2H])([2H])N1C(=O)c2cccc(OC(F)F)c2[C@H]2C[C@@H]1c1nc3ccc(C#CC(=O)OC)cc3n12 [Example 27, methyl 3-((7R,14R)-1-(difluoromethoxy)-6-(methyl-d3)-5-oxo-5,6,7,14-tetrahydro-7,14-methanobenzo[f]benzo[4,5]imidazo[1,2-a][1,4]diazocin-11-yl)propiolate]"
12,< 100,"[2H]C([2H])([2H])N1C(=O)c2cccc(OC(F)F)c2[C@H]2C[C@@H]1c1nc3ccc(C#Cc4nnc(C)o4)cc3n12 [Example 28, (7R,14R)-1-(difluoromethoxy)-6-(methyl-d3)-11-((5-methyl-1,3,4-oxadiazol-2-yl)ethynyl)-6,7-dihydro-7,14-methanobenzo[f]benzo[4,5]imidazo[1,2-a][1,4]diazocin-5(14H)-one]"
13,< 100,"[2H]C([2H])([2H])N1C(=O)c2cccc(OC(F)F)c2[C@H]2C[C@@H]1c1nc3ccc(C#Cc4nnc(C)s4)cc3n12 [Example 29, (7R,14R)-1-(difluoromethoxy)-6-(methyl-d3)-11-((5-methyl-1,3,4-thiadiazol-2-yl)ethynyl)-6,7-dihydro-7,14-methanobenzo[f]benzo[4,5]imidazo[1,2-a][1,4]diazocin-5(14H)-one]"
14,< 100,"[2H]C([2H])([2H])N1C(=O)c2cccc(OC(F)F)c2[C@H]2C[C@@H]1c1nc3ccc(C#Cc4nncs4)cc3n12 [Example 30, (7R,14R)-11-((1,3,4-thiadiazol-2-yl)ethynyl)-1-(difluoromethoxy)-6-(methyl-d3)-6,7-dihydro-7,14-methanobenzo[f]benzo[4,5]imidazo[1,2-a][1,4]diazocin-5(14H)-one]"
15,< 100,"[2H]C([2H])([2H])N1C(=O)c2cccc(OC(F)F)c2[C@H]2C[C@@H]1c1nc3ccc(C#Cc4cncc(F)c4)cc3n12 [Example 31, (7R,14R)-1-(difluoromethoxy)-11-((5-fluoropyridin-3-yl)ethynyl)-6-(methyl-d3)-6,7-dihydro-7,14-methanobenzo[f]benzo[4,5]imidazo[1,2-a][1,4]diazocin-5(14H)-one]"
16,< 100,"[2H]C([2H])([2H])N1C(=O)c2cccc(OC(F)F)c2[C@H]2C[C@@H]1c1nc3ccc(C#Cc4cncs4)cc3n12 [Example 32, (7R,14R)-1-(difluoromethoxy)-6-(methyl-d3)-11-(thiazol-5-ylethynyl)-6,7-dihydro-7,14-methanobenzo[f]benzo[4,5]imidazo[1,2-a][1,4]diazocin-5(14H)-one]"
17,10000 to 30000,"[2H]C([2H])([2H])N1C(=O)c2cccc(OC(F)F)c2[C@H]2C[C@@H]1c1nc3ccc(C#Cc4cccnn4)cc3n12 [Example 33, (7R,14R)-1-(difluoromethoxy)-6-(methyl-d3)-11-(pyridazin-3-ylethynyl)-6,7-dihydro-7,14-methanobenzo[f]benzo[4,5]imidazo[1,2-a][1,4]diazocin-5(14H)-one]"
18,< 100,"[2H]C([2H])([2H])N1C(=O)c2cccc(OC(F)F)c2[C@H]2C[C@@H]1c1nc3ccc(C#Cc4cnc(C)cn4)cc3n12 [Example 34, (7R,14R)-1-(difluoromethoxy)-6-(methyl-d3)-11-((5-methylpyrazin-2-yl)ethynyl)-6,7-dihydro-7,14-methanobenzo[f]benzo[4,5]imidazo[1,2-a][1,4]diazocin-5(14H)-one]"
19,10000 to 30000,"[2H]C([2H])([2H])N1C(=O)c2cccc(OC(F)F)c2[C@H]2C[C@@H]1c1nc3ccc(C#CC4(O)CCC4)cc3n12 [Example 35, (7R,14R)-1-(difluoromethoxy)-11-((1-hydroxycyclobutyl)ethynyl)-6-(methyl-d3)-6,7-dihydro-7,14-methanobenzo[f]benzo[4,5]imidazo[1,2-a][1,4]diazocin-5(14H)-one]"
20,< 100,"[2H]C([2H])([2H])N1C(=O)c2cccc(OC(F)F)c2[C@H]2C[C@@H]1c1nc3ccc(C#Cc4cnsc4)cc3n12 [Example 36, (7R,14R)-1-(difluoromethoxy)-11-(isothiazol-4-ylethynyl)-6-(methyl-d3)-6,7-dihydro-7,14-methanobenzo[f]benzo[4,5]imidazo[1,2-a][1,4]diazocin-5(14H)-one]"
21,< 100,"[2H]C([2H])([2H])N1C(=O)c2cccc(OC(F)F)c2[C@H]2C[C@@H]1c1nc3ccc(C#CC(=O)O)cc3n12 [Example 37, 3-((7R,14R)-1-(difluoromethoxy)-6-(methyl-d3)-5-oxo-5,6,7,14-tetrahydro-7,14-methanobenzo[f]benzo[4,5]imidazo[1,2-a][1,4]diazocin-11-yl)propiolic Acid]"

# Same assay, conditions: IC50 value, HEK Blue TNFα reporter cells; TNF-α 100 μg/ml; 24 hrs at 37° C.; inhibition of secreted alkaline phosphatase
row,IC50 [nM],SMILES
1,< 100,"[2H]C([2H])([2H])N1C(=O)c2cccc(OC(F)F)c2[C@H]2C[C@@H]1c1nc3ccc(C#CC(=O)OC(C)C)cc3n12 [Example 38, isopropyl 3-((7R,14R)-1-(difluoromethoxy)-6-(methyl-d3)-5-oxo-5,6,7,14-tetrahydro-7,14-methanobenzo[f]benzo[4,5]imidazo[1,2-a][1,4]diazocin-11-yl)propiolate]"
